IC50 data for 14 compounds are collected here from patent US20250074907A1, “INHIBITORS OF SARS-COV-2” (THE TEXAS A&M UNIVERSITY SYSTEM, priority 2021, published 2025).

Molecules are shown by their SMILES. pIC50: −log10 of the molar value.

The experiment has as its target main protease (Mpro) of SARS-CoV-2 (Severe acute respiratory syndrome coronavirus 2 (2019-nCoV) (SARS-CoV-2), UniProt P0DTD1). Kind of experiment: Enzyme IC50 of SARS-CoV-2 inhibitors. The experiment is classed as biochemical.

As to `Cc1cncc(C(=O)N2CCC(=C3c4ccccc4C[S+]([O-])c4ccccc43)CC2)c1` (centres unmarked) [NZ- 826, (5-methyl-3-pyridyl)-[4-(5-oxo-6H-benzo[c][1]benzothiepin-11-ylidene)-1-piperidyl]methanone], under “Table 2, List of compounds”, the negative-log IC50 (pIC50) was 7.15 to 7.22. The same measure, in the same setting: with `Cc1cncc(C(=O)N2CCC(=C3c4ccccc4CS(=N)(=O)c4ccccc43)CC2)c1` (centres unmarked) [NZ- 827, [4-(5-imino-5-oxo-6H-benzo[c][1]benzothiepin-11-ylidene)-1-piperidyl]-(5-methyl-3-pyridyl)methanone] the figure was 7.24; with `O=C(c1cncc2cc[nH]c12)N1CCC(=C2c3ccccc3CSc3ccccc32)CC1` [NZ- 828, [4-(6H-benzo[c][1]benzothiepin-11-ylidene)-1-piperidyl]-(1H-pyrrolo[3,2-c]pyridin-7-yl)methanone], 7.48 to 7.68; with `O=C(c1cncc2cc[nH]c12)N1CCC(=C2c3ccccc3C[S+]([O-])c3ccccc32)CC1` (centres unmarked) [NZ- 829, [4-(5-oxo-6H-benzo[c][1]benzothiepin-11-ylidene)-1-piperidyl]-(1H-pyrrolo[3,2-c]pyridin-7-yl)methanone], 7.51 to 7.82. As for `N=S1(=O)Cc2ccccc2C(=C2CCN(C(=O)c3cncc4cc[nH]c34)CC2)c2ccccc21` (centres unmarked) [NZ- 830, [4-(5-imino-5-oxo-6H-benzo[c][1]benzothiepin-11-ylidene)-1-piperidyl]-(1H-pyrrolo [3,2-c]pyridin-7-yl)methanone], the pIC50 (Table 2, List of compounds) was 7.41 to 7.49. Still for that read-out and setting: with `Cc1cncc(C(=O)N2CCN(C3c4ccccc4CS(=O)(=O)c4ccc(F)cc43)CC2)c1` (centres unmarked) [NZ- 831, [4-(2-fluoro-5,5-dioxo-6,11-dihydrobenzo[c][1]benzothiepin-11-yl)piperazin-1-yl]-(5-methyl-3-pyridyl)methanone] the figure was 7.35; with `O=C(c1cncc2cc[nH]c12)N1CCN(C2c3ccccc3CS(=O)(=O)c3ccc(F)cc32)CC1` (centres unmarked) [NZ- 832, [4-(2-fluoro-5,5-dioxo-6,11-dihydrobenzo[c][1]benzothiepin-11-yl)piperazin-1-yl]-(1H-pyrrolo[3,2-c]pyridin-7-yl)methanone], 7.74. On the same count and under the same terms, with `Cc1cncc(C(=O)N2CCN(C3c4cc(F)ccc4CS(=O)(=O)c4ccccc43)CC2)c1` (centres unmarked) [NZ- 833, [4-(9-fluoro-5,5-dioxo-6,11-dihydrobenzo[c][1]benzothiepin-11-yl)piperazin-1-yl]-(5-methyl-3-pyridyl)methanone] the figure was 6.89 to 7.18. Compound `O=C(c1cncc2cc[nH]c12)N1CCN(C2c3cc(F)ccc3CS(=O)(=O)c3ccccc32)CC1` (centres unmarked) [NZ- 834, [4-(9-fluoro-5,5-dioxo-6,11-dihydrobenzo[c][1]benzothiepin-11-yl)piperazin-1-yl]-(1H-pyrrolo[3,2-c]pyridin-7-yl)methanone] gave a pIC50 (Table 2, List of compounds) of 7.33 to 7.85. Still for that read-out and setting: with `Cc1cncc(C(=O)N2CCC(=C3c4ccccc4CC(=O)c4sccc43)CC2)c1` [NZ- 835, 2-[1-(5-methylpyridine-3-carbonyl)-4-piperidylidene]-6-thiatricyclo[8.4.0.03,7]tetradeca-1(10),3(7),4,11,13-pentaen-8-one] the figure was 7.32 to 7.57; with `O=C1Cc2ccccc2C(=C2CCN(C(=O)c3cncc4cc[nH]c34)CC2)c2ccsc21` [NZ- 836], 7.70 to 8.05. The same measure, in the same setting: the same measure for `O=C(c1cncc2cc[nH]c12)N1CCC(=C2c3ccccc3C3OC3c3ccccc32)CC1` (centres unmarked) [NZ- 838]: 7.04; for `O=C1Cc2ccccc2C(=C2CCN(C(=O)c3cncc4cc[nH]c34)CC2)c2ccccc21` [NZ- 839]: 7.74.

Turning to `Cc1cncc(-c2nnc3n2CCN(C(c2ccccc2)c2ccccc2)C3)c1` [PKJ-585], the pIC50 (Table 1, Example SARS-COV-2 inhibitors) is 5.24.

Usually pIC50 stands for −log10 of the IC50, conventionally taken in molar units. Low readings indicate a high IC50, high ones a low IC50.
